Each structure is given as a SMILES string.

Usually melting point stands for the temperature, or range, at which the solid turns liquid. `C[C@@H]1C[C@H](I)[C@@H]2C[C@H]1C(=O)O2` yielded a melting point of 99 to 100 °C.
The molecule `c1cnc2ccc(Cn3nnc4ccc(-c5ccc6[nH]ccc6c5)nc43)cc2c1` displayed a melting point of 120 to 122 °C.
As for `COC(=O)C1=CC(=O)C(C)(c2ccccc2)O1` (stereo not drawn), the melting point was in the range of 60 to 62 °C.
With `CCOC(=O)C1CCCCN1C(=O)[C@H](CCCNC(=N)N)NS(=O)(=O)c1ccc2cc(OC)ccc2c1` (stereo partly drawn) the figure was 192 to 193 °C.
The molecule `O=C(OCc1ccccc1)[C@H](CCCCO)N1C(=O)c2ccccc2C1=O` had a melting point of 106 to 108 °C.
With `Nc1c(-c2cccnc2)nsc1C(=O)O` the figure was 235 to 236 °C.
For `CN1CCc2c(sc(N)c2C(=O)c2ccccc2)C1` the value was 164 to 165 °C; for `CCC(=O)NCCC1CCc2ccn3nc(C)cc3c21` (stereo not drawn), 100 to 102 °C.
With `O=C1CNc2cc(Br)c(Cl)cc2N1` the figure was 230 to 232 °C; with `COc1ccc2c(c1)N(C1CN3CCC1CC3)c1ccccc1S2` (stereo not drawn), 158 °C; with `COc1cccc(N2CCN(C(=O)NCCN(C)C)CC2)c1`, 70 to 72 °C.
The molecule `CC(=O)OC1CSC(Oc2cnccc2-c2ccoc2)C(OC(C)=O)C1OC(C)=O` (stereo not drawn) had a melting point of 167 °C.
`CCNC(=O)c1cccc(-c2ccc3ncn(CCc4ccc(OC)c(OC)c4)c3n2)c1` displayed a melting point of 152 to 153 °C.
In turn, `c1cc2c3c(c1)nc(N1CCC(c4c[nH]cn4)CC1)n3CCC2` registered a melting point of 250 to 255 °C.
In the case of `CC=CC(=O)Nc1n[nH]c2cc(Cl)ccc12`, the melting point worked out at 226 °C.
For `Cc1ccccc1C1NS(=O)(=O)c2ccccc21` (single isomer, unassigned; (+)) the value was 109 to 111 °C; for `Cc1cccc(Nc2nc(-n3nc(C)cc3C)nc3ccccc23)c1`, 249 to 250 °C.
For `Cc1sc(-c2ccc([N+](=O)[O-])cc2)nc1O` the value was 244 to 248 °C.
Turning to `CC1(C)OC[C@H](Cn2cc3nccc(I)c3n2)O1`, the melting point was in the range of 85 to 87 °C.
With `COc1cccc(CC(=O)O)c1OCCCc1cn(-c2ncc(C#N)cn2)nc1C(C)C` the figure was 167 to 168 °C; with `Nc1ccc2c(c1Br)C(=O)CCC2`, 93 to 96 °C.
On to `COCC1CN(c2ccc(C3CCC4(CC3)OCCO4)nc2)C(=O)O1` (racemic), for which the melting point lay within 93 to 94 °C.
With `CC(=O)NC1=C(C#N)C(c2cccc([N+](=O)[O-])c2)=C2C=Cc3ccccc3C2O1` (stereo not drawn) the figure was 234 to 236 °C.
Regarding `CC(C)(C)c1nc2cc(Cl)c([N+](=O)[O-])cc2s1`, the melting point fell in the range of 65 to 69 °C.
For `CCCCNC(=O)OCC(=O)O` the value was 83 to 84 °C; for `C[C@H](NC(c1ccccc1)(c1ccccc1)c1ccccc1)C(=O)O`, 154 to 155 °C; for `COc1ccc2c(c1)[C@](C)(NC(=O)c1cc3ccccc3[nH]1)C(=O)N2c1ccc(F)cc1`, 287 to 288 °C.
With `C=CCN1CC(c2ccccc2)=C(O)C1=O` the figure was 178 to 183 °C; with `Cc1cc(SCc2ccc(-c3ccc(C(F)(F)F)cn3)cc2)c2c(c1OCC(=O)O)CCCO2`, 156 to 157 °C.
Turning to `Cn1c(C(F)(F)F)cc(=O)n(-c2cc(OC(=O)OCC(Cl)(Cl)Cl)c(Cl)cc2F)c1=O`, the melting point was 140 to 142 °C.
For `Cc1cc2c(cc1C)C1(CO2)C(=O)N(CC2CCOCC2)c2ccccc21` (stereo not drawn) the value was 199 to 201 °C; for `CCCCOc1nc(-c2ccc(=O)n(C(C)C)n2)c(-c2ccccc2)nc1N`, 130 to 132 °C.
Take `COc1ccc(COC(=O)N[C@@H](CC(N)=O)C(=O)N[C@@H](Cc2ccccc2)[C@H](O)C(=O)N2CCC[C@H]2C(=O)NC(C)(C)C)cc1`: the melting point fell in the range of 95 to 97 °C.
As to `Nc1cc(/C=C/c2nc3ccccc3s2)ccc1O`, the melting point was in the range of 192 to 193 °C.
Turning to `O=C(C=CCN1CCN(C[C@H]2CCC(=O)O2)CC1)Nc1cc2c(Nc3ccc(F)c(Cl)c3)ncnc2cc1OCC1CC1`, the melting point fell in the range of 145 to 150 °C.
For `CC1C(=O)N(c2ccc(Cc3ccccc3)cc2)C(=S)N1c1ccccc1` (stereo not drawn) the value was 123 to 125 °C.
With `O=C(Nc1ccc2cc(CN3CCCC3)ccc2c1)N1CCC(c2ccc(Cl)cc2)CC1` the figure was 209 to 211 °C; with `CCOC(=O)CC(Nc1ccccc1)c1ccccc1` (racemic), 87 °C; with `COCc1c(C(=O)OC)c2cc(OC)ccc2n1C`, 89.2 to 91 °C.
With `O=C(c1nc(-c2ccccc2)nc2ccccc12)N1CCC(O)CC1` the figure was 209 °C.
With `CC#CCOc1ccc(SC(C(=O)NO)c2cccc(Cl)c2)cc1` (stereo not drawn), the melting point was 127 °C.
For `CCC(C)(C)c1ccc(OCC(=O)Nc2cccc(C(=O)Nc3[nH]n(-c4c(Cl)cc(Cl)cc4Cl)c(=O)c3Br)c2)c(C(C)(C)CC)c1` the value was 139 to 141 °C; for `CCOC(=O)/C=C/c1ccc(OC)c(F)c1`, 39 to 41 °C; for `CCn1cc(C(=O)O)c(=O)c2cc(F)c(N3CCNC(c4cc(C)sc4C)C3)cc21` (stereo not drawn), 248 to 250 °C.
For `COc1cc(N2CCN(C[C@@H](O)CO)CC2)ccc1Nc1ncc2ccc(-c3ccccc3OC)n2n1` the value was 83 to 90 °C.
For `COc1c2c(cc3c1OCO3)C(OC(C)=O)CN(C)C2` (stereo not drawn) the value was 109 to 110 °C.
`O=C(O)C(CSc1ccccc1)CS(=O)(=O)c1ccc(-c2ccc(Cl)cc2)cc1` (stereo not drawn) had a melting point of 158 to 162 °C.
For `CC(C)c1nn(-c2ccc(C(F)(F)F)cn2)cc1CCCOc1c(Cl)cccc1CC(=O)O` the value was 141 to 142 °C; for `O=C(CN1CCOCC1)Oc1ccc2c(=O)c3c(oc2c1)C(=Cc1ccccc1)CC3`, 204 to 206 °C.
For `O=C(O)CNC(=O)Nc1ccc([N+](=O)[O-])cc1` the value was 213 to 214 °C.
For `CC(CCCC(C)C1CCC2C3CC=C4C(C)(C)C(O)CCC4(C)C3CCC12C)CO[Si](C)(C)C(C)(C)C` (stereo not drawn) the value was 88.5 °C.
In turn, `CSCC(=O)c1ccc(O)c(O)c1` had a melting point of 107 °C.
`Clc1ccc(COC(C=Cc2ccccc2)Cn2ccnc2)c(Cl)c1` (stereo not drawn) showed a melting point of 134 °C.
With `Cc1cccc(-c2[nH]c(C(C)C)nc2-c2ccc(F)c(-c3cc[nH]n3)c2)n1` the figure was 195 to 198 °C.
Regarding `FC(F)(F)c1cc(Br)c2nc(N3CCN(c4ncc(Cl)cc4Cl)CC3)[nH]c2c1`, the melting point was in the range of 176 to 179 °C.
With `CN(C)C=C1CCc2ccn(S(=O)(=O)c3ccccc3)c2C1=O` the figure was 116 to 118 °C.
For `CCC(=O)c1cc2ccccc2s1` the value was 79 to 81 °C; for `CCC(C)(C)Nc1c(NCc2ccccn2)c(=O)c1=O`, 192 °C; for `FC(F)(F)c1ccc(-n2nc(N3CCN(CC4CC4)CC3)c3ccccc32)cc1`, 98 to 100 °C.
Regarding `COc1cc(N)c(F)cc1Br`, the melting point was 60 to 62 °C.
With `COC(=O)C1=C(C)NC(C)=C(C(=O)OC(C)C)C1c1cccc([N+](=O)[O-])c1` (stereo not drawn) the figure was 142 to 144 °C.
Molecule `Cc1ccc2c(c1)c1cc(-c3ccc(Cl)cc3Cl)c(=O)n(C)c1n2CCOC1CCCCO1` (stereo not drawn) returned a melting point of 161 °C.
For `N#Cc1cnc2cnc(F)cc2c1Cl` the value was 150 to 155 °C; for `Cc1oc(-c2ccccc2)nc1Cc1cc2cc(C=C3OC(=O)NC3=O)ccc2o1`, 185 to 200 °C; for `Oc1ccc(SCCCN2CCOCC2)c(O)c1`, 99 °C.
`Cc1nc2c(O[C@@H]3c4ccccc4C[C@H]3O)cc(C(=O)O)cc2n1C` (relative stereo) had a melting point of 306 °C.
For `O=C(Nc1ccc(N2CCSCC2)c(F)c1)OCc1ccccc1` the value was 142 °C.
For `CCOC(=O)Cc1cnc(Nc2n[nH]c3ccc(-c4ncccc4Cl)cc23)s1` the value was 259 to 261 °C; for `CCCCCCC(C)N(C(C)=O)c1ccc(I)cc1` (stereo not drawn), 60 to 62 °C; for `CCn1c(C)nc(N2CCc3nc(N)sc3CC2)c([N+](=O)[O-])c1=O`, above 200 °C.
Regarding `COc1ccc2c(c1)CCC(CC(=O)N1CCCCC1)C2` (stereo not drawn), the melting point lay within 59 to 61 °C.
With `CN(C)CC(c1ccc(OCc2ccccc2)cc1)C1(O)CCCCC1` (stereo not drawn) the figure was 140 to 142 °C.
For `O=C(O)C1=Cc2cc(Cl)c(S(=O)c3ccc(Cl)cc3)cc2OC1C(F)(F)F` (stereo not drawn) the value was 214 to 217 °C.
For `C=C(C(=O)NS(=O)(=O)c1cccc(C#N)c1)c1ccc(OCCOC)cc1Oc1ncc(C(F)(F)F)cc1Cl` the value was 195 to 197 °C; for `CNC(=O)N(c1ccccc1)c1cccc2ccccc12`, 146 °C.
Molecule `COc1ccc(N2CCN(c3c(C)c(C)c4c(c3C)C(O)(C(C)(C)C)C(C)(C)O4)CC2)cc1` (stereo not drawn) yielded a melting point of 113 to 115 °C.
`CC(C)Cn1c(CNC(=O)OC(C)(C)C)c(-c2ccc(F)cc2)c2cc(OCc3ccccc3)ccc2c1=O` yielded a melting point of 184 to 185 °C.
With `CS(=O)(=O)N(c1cccc(C(=O)Nc2nccs2)c1)C1CN(C(c2ccc(Cl)cc2)c2ccc(Cl)cc2)C1` the figure was 244 °C.
Molecule `CC(C)(C)C(=O)Oc1cc(C=CC(=O)c2ccccc2)cc([N+](=O)[O-])c1O` yielded a melting point of 148 to 150 °C.
With `CSSc1ccc([N+](=O)[O-])cc1` the figure was 42.9 to 44.3 °C.
With `CCSc1c(C=NO)c(=O)n(C)c(=O)n1C` the figure was 161 to 163 °C.
`Nc1cc2c(Nc3ccc4c(cnn4Cc4cccc(F)c4)c3)ncnc2cn1`: the melting point was 241 to 244 °C.
In turn, `Cc1nc(N2CCNC2=O)sc1C(=O)NCc1ccccc1` showed a melting point of 226 to 228 °C.
Turning to `CCOC(=O)CCCCCOc1cc(C=CC2=C(C#N)C(=C(C#N)C#N)OC2(C)C)ccc1N`, the melting point was found to be 164 °C.
Take `COCOc1ccc(C=CC(=O)c2c(O)cc(OC)cc2OC)cc1`: the melting point is 104 °C.
For `N#Cc1cccc(CCc2n[nH]c3c2c(=O)n(-c2ccccc2)c2ncccc32)c1` the value was 220 to 224 °C.
Molecule `CN1CCC(N(C)c2ncc3ncnc(Nc4ccc(N)c([N+](=O)[O-])c4)c3n2)CC1` showed a melting point of 242 to 246 °C.
With `O=C(NC1(C(=O)Nc2nncs2)CCCC1)OCc1ccccc1` the figure was 229 to 233 °C.
